Measured values: patent US9458172B2, “Pyridinyl and pyrimidinyl sulfoxide and sulfone derivatives” (priority 2012, dated 2016)

How the values were obtained:
[1] = system: mouse mammary carcinoma; details: mouse mammary carcinoma model; cited from earlier work
[2] = system: tumor cell lines; details: broad range of tumor cell lines; cited from earlier work
[3] = target: NAMPT (Homo sapiens (Human), UniProt P43490); test: Biochemical Inhibition Assay (NAMPT enzymatic reaction, NMN quantified by mass spectrometry); details: 33 nM recombinant His-tagged NAMPT, 1 μM NAM, 30 min at rt
Summary of the method: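 His-tagged human NAMPT from E. coli preincubated 15 min at rt with compound in 50 mM Hepes pH 7.5, 50 mM NaCl, 5 mM MgCl2, 1 mM THP, then reacted 30 min at rt with 1 μM NAM, […] PRPP, 2.5 mM ATP. NMN quantified by RapidFire mass spectrometry, normalized to L-Cystathionine, background subtracted.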

[4] = system: A2780 cells; test: In-Vitro Cell Proliferation Assay (SRB); details: Homo sapiens, A2780, 72 h, read-out: Cell Proliferation (IC50)

Sequence of NAMPT (P43490 whole entry): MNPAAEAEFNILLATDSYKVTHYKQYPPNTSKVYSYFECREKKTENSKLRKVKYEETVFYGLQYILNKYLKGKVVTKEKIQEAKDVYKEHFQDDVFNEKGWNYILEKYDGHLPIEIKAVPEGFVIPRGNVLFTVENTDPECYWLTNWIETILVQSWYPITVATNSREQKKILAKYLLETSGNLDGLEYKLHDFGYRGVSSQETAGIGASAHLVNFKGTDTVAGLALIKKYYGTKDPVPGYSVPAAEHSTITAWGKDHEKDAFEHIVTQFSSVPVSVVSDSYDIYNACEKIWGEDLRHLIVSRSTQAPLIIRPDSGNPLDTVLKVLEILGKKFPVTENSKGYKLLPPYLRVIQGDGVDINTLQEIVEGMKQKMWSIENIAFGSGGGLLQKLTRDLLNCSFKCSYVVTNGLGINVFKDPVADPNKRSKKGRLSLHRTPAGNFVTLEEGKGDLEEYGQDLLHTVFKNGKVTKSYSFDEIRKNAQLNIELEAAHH

Row | SMILES | IC50 [3] | IC50 [4] | further results
1 | O=C(/C=C/c1cccnc1)NCCCCC1CCN(C(=O)c2ccccc2)CC1 [FK866] |  |  | NAD levels [1]: reduce NAD levels; tumor growth [1]: induce a delay in tumor growth; tumor radiosensitivity [1]: enhance tumor radiosensitivity
2 | N#CN=C(NCCCCCCOc1ccc(Cl)cc1)Nc1ccncc1 [CHS-828] |  |  | cell growth [2]: potently inhibit cell growth
3 | O=C(NCc1ccc(S(=O)(=O)c2ccc(N3CCOCC3)nc2)cn1)c1ccc2nccn2c1 [Example 35, Imidazo[1,2-a]pyridine-6-carboxylic acid [5-(6-morpholin-4-yl-pyridine-3-sulfonyl)-pyridin-2-ylmethyl]-amide] | 8.6 nM | 2 nM | 
4 | O=C(NCc1ccc(S(=O)(=O)c2ccccc2)cn1)N1Cc2cn[nH]c2C1 [Example 178, N-[[5-(benzenesulfonyl)-2-pyridyl]methyl]-4,6-dihydro-1H-pyrrolo[3,4-c]pyrazole-5-carboxamide] | 2000 nM | 2000 nM | 
5 | O=C(NCc1ccc(S(=O)(=O)N2CCN(C3CCOCC3)CC2)cn1)N1Cc2ccncc2C1 [Example 126, N-[[5-(4-tetrahydropyran-4-ylpiperazin-1-yl)sulfonyl-2-pyridyl]methyl]-1,3-dihydropyrrolo[3,4-c]pyridine-2-carboxamide] | 68.4 nM | 56 nM | 
6 | O=C(NCc1ccc(S(=O)(=O)C2CCN(C3CCOCC3)CC2)cn1)c1ccc2nccn2c1 [Example 161, N-[[5-[(1-tetrahydropyran-4-yl-4-piperidyl)sulfonyl]-2-pyridyl]methyl]imidazo[1,2-a]pyridine-6-carboxamide] | 253 nM | 52.8 nM | 

The next lines start with results.

Row | IC50 [3] | IC50 [4] | SMILES | further results
7 | 156 nM | 2000 nM | N#Cc1cccc(S(=O)(=O)c2ccc(CNC(=O)N3Cc4ccncc4C3)nc2)c1 [Example 158, N-[[5-(3-cyanophenyl)sulfonyl-2-pyridyl]methyl]-1,3-dihydropyrrolo[3,4-c]pyridine-2-carboxamide] | 
8 | 8.5 nM | 13.6 nM | O=C(NCc1ccc(S(=O)(=O)c2cccc(OC(F)(F)F)c2)cn1)c1ccc2nccn2c1 [Example 13, Imidazo[1,2-a]pyridine-6-carboxylic acid [5-(3-trifluoromethoxy-benzenesulfonyl)-pyridin-2-ylmethyl]-amide] | 
9 | 66.4 nM | 26.9 nM | O=C(NCc1ccc(S(=O)(=O)c2cncc(Cl)c2)cn1)c1cc2ccncc2o1 [Example 169, N-[[5-[(5-chloro-3-pyridyl)sulfonyl]-2-pyridyl]methyl]furo[2,3-c]pyridine-2-carboxamide] | 
10 | 2.2 nM | 0.8 nM | CN(C)c1ncc(S(=O)(=O)c2ccc(CNC(=O)c3cc4ccncc4s3)nc2)s1 [Example 75, Thieno[2,3-c]pyridine-2-carboxylic acid [5-(2-dimethylamino-thiazole-5-sulfonyl)-pyridin-2-ylmethyl]-amide] | 
11 | 6.1 nM | 10.8 nM | O=C(NCc1ccc(S(=O)(=O)c2cccc(OC(F)(F)F)c2)cn1)c1cc2ccncc2o1 [Example 23, Furo[2,3-c]pyridine-2-carboxylic acid [5-(3-trifluoromethoxy-benzenesulfonyl)-pyridin-2-ylmethyl)-amide] | 
12 | 3.7 nM | 34.5 nM | O=C(NCc1ccc(S(=O)(=O)c2cccc(C(F)(F)F)c2)cn1)N1Cc2ccncc2C1 [Example 49, 1,3-Dihydro-pyrrolo[3,4-c]pyridine-2-carboxylic acid [5-(3-trifluoromethyl-benzenesulfonyl)-pyridin-2-ylmethyl]-amide] | 
